Reference: US20100298141A1, “SUBSTITUTED PYRIDINE N-OXIDE HERBICIDES” (E. I. DU PONT DE NEMOURS AND COMPANY, priority 2007, published 2010)

Key:
giant foxtail = assay: Test A pre-/postemergence greenhouse test; format: in vivo, Setaria faberi; conditions: for Plant response rating, Foxtail, Giant: 0 to 100 scale where 0 is no effect and 100 is complete control; for Foxtail, Giant plant response rating: 0 to 100 scale
Outline: (§1)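 Sowing in loam/sand; same-day pre (directed soil spray) and post (foliar, 1–2 leaf, 2–10 cm) treatment with surfactant-containing non-phytotoxic solvent formulation; ~10 days in greenhouse; eye-scored injury against untreated plants.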

barnyardgrass = assay: Test C flooded paddy test; format: in vivo, Echinochloa crus-galli; conditions: Flood
Outline: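 Greenhouse pots flooded to 3 cm above soil at time of treatment received compound via the water, which stayed at that level.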

green foxtail = assay: Test F preemergence test; format: in vivo, Setaria viridis; conditions: scale 0 to 100
Text: (§2) Seeds of plant species selected from bermudagrass (Cynodon dactylon), Surinam grass (Brachiaria decumbens), large crabgrass (Digitaria sanguinalis), green foxtail (Setaria viridis), goosegrass (Eleusine indica), johnsongrass (Sorghum halepense), kochia (Kochia scoparia), pitted morningglory (Ipomoea lacunosa), purple nutsedge (Cyperus rotundus), common ragweed (Ambrosia elation), mustard (Brassica nigra), guineagrass (Panicum maximum), […] (Paspalum dilatatum), barnyardgrass (Echinochloa crus-galli), southern sandbur (Cenchrus echinatus), common sowthistle (Sonchus oleraceous), prickly […] spinosa), Italian ryegrass (Lolium multiflorum), common purslane (Portulaca oleracea), broadleaf signalgrass (Brachiaria platyphylla), common groundsel (Senecio vulgaris), common chickweed (Stellaria media), Virginia dayflower (Commelina virginica), annual bluegrass (Poa annua), naked crabgrass (Digitaria nuda), […] cochinchinensis), quackgrass (Elytrigia repens), Canada horseweed (Conyza canadensis), field bindweed (Convolvulus arvensis), […] (Bidens bipinnata), common mallow (Malva sylvestris), Russian thistle (Salsola kali), and sugarcane (Saccharum officinarum) were planted and treated preemergence with test chemicals formulated in a non-phytotoxic solvent mixture which included a surfactant. At a different time, sugarcane was treated with postemergence applications of some of the test chemicals formulated in the same manner. Plants were approximately 3- to 4-leaf stage for the postemergence treatments. Treated plants and controls were maintained in a greenhouse for 14 to 21 days, after which time all species were compared to controls and visually evaluated. […] A dash (-) response means no test result.

velvetleaf = assay: Test A pre-/postemergence greenhouse test; format: in vivo, Abutilon theophrasti; conditions: for Plant response rating, Velvetleaf: 0 to 100 scale where 0 is no effect and 100 is complete control; for Velvetleaf plant response rating: 0 to 100 scale
Outline: as §1

southern sandbur = assay: Test F preemergence test; format: in vivo, Cenchrus echinatus; conditions: scale 0 to 100; for Sandbur plant response rating: 125 g ai/ha, preemergence; for Plant response rating, Sandbur: Preemergence
Text: as §2

common ragweed = assay: Test C pre-/postemergence test; format: in vivo, Ambrosia elation
Outline: (§3)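 Test chemicals were formulated with surfactant in a non-phytotoxic solvent and sprayed both on freshly planted seeds (preemergence) and on 1- to 4-leaf plants of 2–18 cm (postemergence). Flooded-paddy pots received compound directly into 3 cm of standing water, maintained for the test.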

annual bluegrass = assay: Test F preemergence test; format: in vivo, Poa annua; conditions: scale 0 to 100
Text: as §2

purple nutsedge = assay: Test F preemergence test; format: in vivo, Cyperus rotundus; conditions: scale 0 to 100
Text: as §2

field bindweed = assay: Test F preemergence test; format: in vivo, Convolvulus arvensis; conditions: scale 0 to 100
Text: as §2

wheat = assay: Test C pre-/postemergence test; format: in vivo, Triticum aestivum
Outline: as §3

[1] = Postemergence, 500 g ai/ha, 0 is no effect, 100 is complete control
[2] = Preemergence, 125 g ai/ha, 0 no effect, 100 complete control
[3] = 62 g ai/ha, scale 0 to 100 (0 no effect, 100 complete control)
[4] = 250 g ai/ha, scale 0 to 100, 0 no effect, 100 complete control, 13 to 15 days
[5] = 62 g ai/ha, Preemergence, scale 0 to 100
[6] = 125 g ai/ha, preemergence, scale 0 (no effect) to 100 (complete control)
[7] = Postemergence, 125 g ai/ha, scale 0 to 100, 0 no effect, 100 complete control
[8] = Postemergence, 250 g ai/ha, scale 0 to 100, 0 no effect, 100 complete control
[9] = Preemergence, 31 g ai/ha, scale 0 to 100 (0 no effect, 100 complete control)
[10] = preemergence, 250 g ai/ha, scale 0 (no effect) to 100 (complete control)

With `Cn1nc(C(F)(F)C(F)(F)F)c(C[S+]([O-])c2cccc[n+]2[O-])c1OCC(F)(F)F` (stereo not shown) [Compound 79] the “Plant response rating, Foxtail, Giant” value (giant foxtail; Postemergence, 125 g ai/ha) was 80, the “Foxtail, Giant plant response rating” value (giant foxtail; [1]) was 90 and the “Foxtail, Giant plant response rating” value (giant foxtail; [2]) was 90. The “Plant response rating, Foxtail, Giant” value (giant foxtail; Preemergence, 500 g ai/ha) was 100, the “Plant response rating, Barnyardgrass” value (barnyardgrass; [3]) was 0 and the “Plant response rating, Barnyardgrass” value (barnyardgrass; [4]) was 70. For the same molecule, the “Plant response rating, Foxtail, Green” value (green foxtail; 16 g ai/ha, preemergence) was 20, the “Foxtail, Green plant response rating” value (green foxtail; 62 g ai/ha, Preemergence) was 90 and the “Foxtail, Green plant response rating” value (green foxtail; 125 g ai/ha, preemergence) was 100. For the same molecule, the “Plant response rating, Foxtail, Green” value (green foxtail; Preemergence, 31 g ai/ha) was 60, the “Plant response rating, Velvetleaf” value (velvetleaf; Postemergence, 125 g ai/ha) was 60 and the “Velvetleaf plant response rating” value (velvetleaf; [1]) was 80. The “Velvetleaf plant response rating” value (velvetleaf; [2]) was 80, the “Plant response rating, Velvetleaf” value (velvetleaf; Preemergence, 500 g ai/ha) was 100 and the “Sandbur plant response rating” value (southern sandbur) was 95. The “Plant response rating, Sandbur” value (southern sandbur; 62 g ai/ha) was 95, the “Plant response rating, Sandbur” value (southern sandbur; 31 g ai/ha) was 35 and the “Ragweed plant response rating” value (common ragweed; [5]) was 50. For the same molecule, the “Ragweed plant response rating” value (common ragweed; [6]) was 100, the “Plant response rating (0 to 100), Ragweed” value (common ragweed; Postemergence, 31 g ai/ha) was 0 and the “Plant response rating (0 to 100), Ragweed” value (common ragweed; Postemergence, 62 g ai/ha) was 40. For the same molecule, the “Plant response rating, Ragweed” value (common ragweed; [7]) was 45, the “Plant response rating, Ragweed” value (common ragweed; [8]) was 50 and the “Plant response rating, Ragweed” value (common ragweed; [9]) was 50. The “Ragweed plant response rating” value (common ragweed; [10]) was 100, the “Plant response rating, Bluegrass” value (annual bluegrass; 16 g ai/ha, preemergence) was 0 and the “Bluegrass plant response rating” value (annual bluegrass; 62 g ai/ha, Preemergence) was 90. The “Bluegrass plant response rating” value (annual bluegrass; 125 g ai/ha, preemergence) was 100, the “Plant response rating, Bluegrass” value (annual bluegrass; Preemergence, 31 g ai/ha) was 0 and the “Plant response rating, Purple Nutsedge” value (purple nutsedge; 16 g ai/ha, preemergence) was 0. The “Purple Nutsedge plant response rating” value (purple nutsedge; 62 g ai/ha, Preemergence) was 0, the “Purple Nutsedge plant response rating” value (purple nutsedge; 125 g ai/ha, preemergence) was 60 and the “Plant response rating, Purple Nutsedge” value (purple nutsedge; Preemergence, 31 g ai/ha) was 0. For the same molecule, the “Plant response rating, Field Bindweed” value (field bindweed; 16 g ai/ha, preemergence) was 60, the “Field Bindweed plant response rating” value (field bindweed; 62 g ai/ha, Preemergence) was 80 and the “Field Bindweed plant response rating” value (field bindweed; 125 g ai/ha, preemergence) was 95. For the same molecule, the “Plant response rating, Field Bindweed” value (field bindweed; Preemergence, 31 g ai/ha) was 70, the “Wheat plant response rating” value (wheat; [5]) was 10 and the “Wheat plant response rating” value (wheat; [6]) was 60. For the same molecule, the “Plant response rating (0 to 100), Wheat” value (wheat; Postemergence, 31 g ai/ha) was 0, the “Plant response rating (0 to 100), Wheat” value (wheat; Postemergence, 62 g ai/ha) was 30 and the “Plant response rating, Wheat” value (wheat; [7]) was 60. The “Plant response rating, Wheat” value (wheat; [8]) was 80, the “Plant response rating, Wheat” value (wheat; [9]) was 10 and the “Wheat plant response rating” value (wheat; [10]) was 80.
For `CC(Oc1c(CS(=O)(=O)c2cccc[n+]2[O-])c(C(F)(F)F)nn1C)C(F)(F)F` (stereo not shown) [Compound 82], the “Plant response rating, Foxtail, Giant” value (giant foxtail; Postemergence, 125 g ai/ha) was 90, the “Foxtail, Giant plant response rating” value (giant foxtail; [1]) was 90 and the “Foxtail, Giant plant response rating” value (giant foxtail; [2]) was 100. The “Plant response rating, Foxtail, Giant” value (giant foxtail; Preemergence, 500 g ai/ha) was 100, the “Plant response rating, Barnyardgrass” value (barnyardgrass; [3]) was 0 and the “Plant response rating, Barnyardgrass” value (barnyardgrass; [4]) was 80. For the same molecule, the “Plant response rating, Foxtail, Green” value (green foxtail; 16 g ai/ha, preemergence) was 30, the “Foxtail, Green plant response rating” value (green foxtail; 125 g ai/ha, preemergence) was 95 and the “Plant response rating, Foxtail, Green” value (green foxtail; Preemergence, 62 g ai/ha) was 95. The “Plant response rating, Foxtail, Green” value (green foxtail; Preemergence, 31 g ai/ha) was 95, the “Plant response rating, Velvetleaf” value (velvetleaf; Postemergence, 125 g ai/ha) was 10 and the “Velvetleaf plant response rating” value (velvetleaf; [1]) was 80. For the same molecule, the “Velvetleaf plant response rating” value (velvetleaf; [2]) was 60, the “Plant response rating, Velvetleaf” value (velvetleaf; Preemergence, 500 g ai/ha) was 100 and the “Sandbur plant response rating” value (southern sandbur) was 95. The “Plant response rating, Sandbur” value (southern sandbur; 62 g ai/ha) was 60, the “Plant response rating, Sandbur” value (southern sandbur; 31 g ai/ha) was 60 and the “Ragweed plant response rating” value (common ragweed; [5]) was 0. The “Ragweed plant response rating” value (common ragweed; [6]) was 100, the “Plant response rating (0 to 100), Ragweed” value (common ragweed; Postemergence, 31 g ai/ha) was 0 and the “Plant response rating (0 to 100), Ragweed” value (common ragweed; Postemergence, 62 g ai/ha) was 30. For the same molecule, the “Plant response rating, Ragweed” value (common ragweed; [7]) was 35, the “Plant response rating, Ragweed” value (common ragweed; [8]) was 50 and the “Ragweed plant response rating” value (common ragweed; [10]) was 100. For the same molecule, the “Plant response rating, Bluegrass” value (annual bluegrass; 16 g ai/ha, preemergence) was 0, the “Bluegrass plant response rating” value (annual bluegrass; 125 g ai/ha, preemergence) was 100 and the “Plant response rating, Bluegrass” value (annual bluegrass; Preemergence, 62 g ai/ha) was 70. The “Plant response rating, Bluegrass” value (annual bluegrass; Preemergence, 31 g ai/ha) was 60, the “Plant response rating, Purple Nutsedge” value (purple nutsedge; 16 g ai/ha, preemergence) was 0 and the “Purple Nutsedge plant response rating” value (purple nutsedge; 125 g ai/ha, preemergence) was 50. For the same molecule, the “Plant response rating, Purple Nutsedge” value (purple nutsedge; Preemergence, 62 g ai/ha) was 30, the “Plant response rating, Field Bindweed” value (field bindweed; 16 g ai/ha, preemergence) was 0 and the “Field Bindweed plant response rating” value (field bindweed; 125 g ai/ha, preemergence) was 0. For the same molecule, the “Plant response rating, Field Bindweed” value (field bindweed; Preemergence, 62 g ai/ha) was 0, the “Plant response rating, Field Bindweed” value (field bindweed; Preemergence, 31 g ai/ha) was 0 and the “Wheat plant response rating” value (wheat; [5]) was 20. For the same molecule, the “Wheat plant response rating” value (wheat; [6]) was 30, the “Plant response rating (0 to 100), Wheat” value (wheat; Postemergence, 31 g ai/ha) was 0 and the “Plant response rating (0 to 100), Wheat” value (wheat; Postemergence, 62 g ai/ha) was 20. For the same molecule, the “Plant response rating, Wheat” value (wheat; [7]) was 25, the “Plant response rating, Wheat” value (wheat; [8]) was 35 and the “Plant response rating, Wheat” value (wheat; [9]) was 10. The “Wheat plant response rating” value (wheat; [10]) was 60.
